Series [1] relates to U-87 MG. The experiment in a line: Induction of morphological changes in human U-87 MG cells assessed as appearance of shrunken cell bodies at 3.3 uM incubated for 72 hrs by Giemsa staining based light microscopic method. The conditions noted are these: U-87MG ATCC. It counts as functional.
Series [2] deals with U-251. The experiment in a line: Induction of morphological changes in human U-251 cells assessed as appearance of rounded and shortened cells at 3.3 uM incubated for 72 hrs by Giemsa staining based light microscopic method. It counts as functional, cell-based.
Series [3] relates to C6. The experiment in a line: Antitumor activity against rat C6 cells inoculated orthotopic Sprague-Dawley rat model assessed as tumor growth inhibition at 100 mg/kg, ip bid administered for 14 days by MRI scanner relative to control. It counts as functional. The settings on record: 336 h, time 14 day, read-out: TGI.
In series [4] the test system is U-87 MG. The experiment in a line: Induction of cell cycle arrest in human U-87 MG cells assessed as increase in G2 phase accumulation at 10 uM incubated for 72 hrs by propidium iodide/RNase A staining based flow cytometry. It counts as functional. The settings on record: U-87MG ATCC. (Flow cytometry measures light scatter and fluorescence of single cells or particles in a stream.)

Series [5] is described as follows: AUC (0 to t) in Sprague-Dawley rat at 100 mg/kg, ip measured up to 24 hrs by LC-MS analysis. Also on record: route intraperitoneal, dose 100 mg/kg, time <=24. It counts as ADME, organism-based. The settings on record: in vivo.
For series [6], the target named is T1, Prostaglandin G/H synthase 2 (Homo sapiens) (UniProt P35354).
T1 sequence (whole entry): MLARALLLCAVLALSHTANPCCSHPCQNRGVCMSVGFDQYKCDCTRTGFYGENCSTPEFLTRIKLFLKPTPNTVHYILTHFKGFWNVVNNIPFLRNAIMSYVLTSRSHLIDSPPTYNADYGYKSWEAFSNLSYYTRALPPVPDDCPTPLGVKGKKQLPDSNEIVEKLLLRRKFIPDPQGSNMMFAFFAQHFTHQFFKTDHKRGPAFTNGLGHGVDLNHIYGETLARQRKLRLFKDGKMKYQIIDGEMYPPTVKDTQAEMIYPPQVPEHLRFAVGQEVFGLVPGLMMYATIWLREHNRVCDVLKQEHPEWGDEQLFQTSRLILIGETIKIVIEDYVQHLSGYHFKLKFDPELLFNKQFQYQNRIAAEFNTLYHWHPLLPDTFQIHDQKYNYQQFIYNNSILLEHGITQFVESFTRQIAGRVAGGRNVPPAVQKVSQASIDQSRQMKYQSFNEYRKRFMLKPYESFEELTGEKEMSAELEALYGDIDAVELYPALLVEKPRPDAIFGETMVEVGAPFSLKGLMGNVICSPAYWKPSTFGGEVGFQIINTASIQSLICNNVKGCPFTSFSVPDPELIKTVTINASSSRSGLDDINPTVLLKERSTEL
The experiment in a line: Inhibition of COX-2 in human U-87 MG cells assessed as inhibition of PGE2 production measured after 72 hrs. It counts as cell-based.

In series [7] the test system is U-87 MG. The experiment in a line: Inhibition of cell invasion in human U-87 MG cells incubated for 24 hrs by crystal violet staining based light microscopic analysis. It counts as functional. The conditions noted are these: U-87MG ATCC.
For series [8], the system named is U-87 MG. The experiment in a line: Antiproliferative activity against human U-87 MG cells assessed as cell survival at <= 1.1 uM measured after 24 hrs by CCK-8 assay. It counts as functional, U-87MG ATCC. The settings on record: dose microM <=1.1. On the technique in general: Formazan colour is commonly taken as a measure of viable cells.
The test system of series [9] is U-87 MG. The experiment in a line: Antiproliferative activity against human U-87 MG cells assessed as inhibition of cell growth measured after 72 hrs by CCK-8 assay. It counts as functional, cell-based, U-87MG ATCC.
Series [10] concerns U-251. The experiment in a line: Induction of morphological changes in human U-251 cells assessed as membrane blebbing at 3.3 uM incubated for 72 hrs by Giemsa staining based light microscopic method. It counts as functional, cell-based.
In series [11] the target is T2, DNA topoisomerase 1 (Homo sapiens) (UniProt P11387).
T2 sequence (whole entry): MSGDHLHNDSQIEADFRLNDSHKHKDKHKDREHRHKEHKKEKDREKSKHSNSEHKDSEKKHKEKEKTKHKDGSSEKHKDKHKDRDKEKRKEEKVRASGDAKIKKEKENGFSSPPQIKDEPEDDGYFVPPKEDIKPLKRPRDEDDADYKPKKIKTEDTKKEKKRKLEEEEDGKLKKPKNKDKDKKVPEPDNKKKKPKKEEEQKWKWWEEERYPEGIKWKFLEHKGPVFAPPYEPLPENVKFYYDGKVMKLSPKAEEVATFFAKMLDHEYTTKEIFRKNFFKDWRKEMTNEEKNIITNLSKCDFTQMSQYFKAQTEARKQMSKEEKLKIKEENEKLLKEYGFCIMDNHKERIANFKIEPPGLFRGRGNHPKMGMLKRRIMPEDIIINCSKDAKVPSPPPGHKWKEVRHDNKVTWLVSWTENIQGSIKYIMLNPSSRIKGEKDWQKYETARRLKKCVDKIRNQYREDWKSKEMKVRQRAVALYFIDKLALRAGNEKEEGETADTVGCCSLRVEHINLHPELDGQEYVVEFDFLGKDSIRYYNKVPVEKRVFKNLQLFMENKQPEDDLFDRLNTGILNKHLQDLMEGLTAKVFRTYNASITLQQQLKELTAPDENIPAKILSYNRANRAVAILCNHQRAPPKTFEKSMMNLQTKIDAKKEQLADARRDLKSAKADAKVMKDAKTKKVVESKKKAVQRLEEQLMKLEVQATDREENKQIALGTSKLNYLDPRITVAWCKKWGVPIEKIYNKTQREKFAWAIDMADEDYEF
The experiment in a line: Inhibition of human topoisomerase I using DNA pBR322 as substrate assessed as DNA intercalation at 100 uM incubated for 30 mins by ethidium bromide staining based agarose gel electrophoresis method.

Series [12] concerns U-251. The experiment in a line: Induction of cell cycle arrest in human U-251 cells assessed as reduction in G0/G1 phase accumulation at 10 uM incubated for 72 hrs by propidium iodide/RNase A staining based flow cytometry (reference value: 79.12%). It counts as functional. More on the design: scale not given: the % may be the effect or the level left.
Series [13] has as its target DNA topoisomerase 2-alpha (Homo sapiens) (UniProt P11388). The experiment in a line: Inhibition of human topoisomerase 2 alpha using supercoiled DNA pBR322 as substrate assessed as DNA relaxation at 100 uM incubated for 30 mins by ethidium bromide staining based agarose gel electrophoresis.
The nature of series [14]: Acute toxicity in Kunming mouse assessed as death at 500 mg/kg, ip administered as single dose observed every day for 14 days. The conditions noted are these: in vivo, 336 h, time 14 day. It counts as organism-based.

The results in this text go back to ChEMBL document CHEMBL5032522, “N-2-(phenylamino) benzamide derivatives as novel anti-glioblastoma agents: Synthesis and biological evaluation” (Eur J Med Chem, 2021).

Active and inactive are the calls of the source. The calls are words filed in the database; no cut-off is given here. A value given as a limit tells only on which side of the number the result lay.

Chain of DNA topoisomerase 2-alpha (Homo sapiens) (P11388 whole entry): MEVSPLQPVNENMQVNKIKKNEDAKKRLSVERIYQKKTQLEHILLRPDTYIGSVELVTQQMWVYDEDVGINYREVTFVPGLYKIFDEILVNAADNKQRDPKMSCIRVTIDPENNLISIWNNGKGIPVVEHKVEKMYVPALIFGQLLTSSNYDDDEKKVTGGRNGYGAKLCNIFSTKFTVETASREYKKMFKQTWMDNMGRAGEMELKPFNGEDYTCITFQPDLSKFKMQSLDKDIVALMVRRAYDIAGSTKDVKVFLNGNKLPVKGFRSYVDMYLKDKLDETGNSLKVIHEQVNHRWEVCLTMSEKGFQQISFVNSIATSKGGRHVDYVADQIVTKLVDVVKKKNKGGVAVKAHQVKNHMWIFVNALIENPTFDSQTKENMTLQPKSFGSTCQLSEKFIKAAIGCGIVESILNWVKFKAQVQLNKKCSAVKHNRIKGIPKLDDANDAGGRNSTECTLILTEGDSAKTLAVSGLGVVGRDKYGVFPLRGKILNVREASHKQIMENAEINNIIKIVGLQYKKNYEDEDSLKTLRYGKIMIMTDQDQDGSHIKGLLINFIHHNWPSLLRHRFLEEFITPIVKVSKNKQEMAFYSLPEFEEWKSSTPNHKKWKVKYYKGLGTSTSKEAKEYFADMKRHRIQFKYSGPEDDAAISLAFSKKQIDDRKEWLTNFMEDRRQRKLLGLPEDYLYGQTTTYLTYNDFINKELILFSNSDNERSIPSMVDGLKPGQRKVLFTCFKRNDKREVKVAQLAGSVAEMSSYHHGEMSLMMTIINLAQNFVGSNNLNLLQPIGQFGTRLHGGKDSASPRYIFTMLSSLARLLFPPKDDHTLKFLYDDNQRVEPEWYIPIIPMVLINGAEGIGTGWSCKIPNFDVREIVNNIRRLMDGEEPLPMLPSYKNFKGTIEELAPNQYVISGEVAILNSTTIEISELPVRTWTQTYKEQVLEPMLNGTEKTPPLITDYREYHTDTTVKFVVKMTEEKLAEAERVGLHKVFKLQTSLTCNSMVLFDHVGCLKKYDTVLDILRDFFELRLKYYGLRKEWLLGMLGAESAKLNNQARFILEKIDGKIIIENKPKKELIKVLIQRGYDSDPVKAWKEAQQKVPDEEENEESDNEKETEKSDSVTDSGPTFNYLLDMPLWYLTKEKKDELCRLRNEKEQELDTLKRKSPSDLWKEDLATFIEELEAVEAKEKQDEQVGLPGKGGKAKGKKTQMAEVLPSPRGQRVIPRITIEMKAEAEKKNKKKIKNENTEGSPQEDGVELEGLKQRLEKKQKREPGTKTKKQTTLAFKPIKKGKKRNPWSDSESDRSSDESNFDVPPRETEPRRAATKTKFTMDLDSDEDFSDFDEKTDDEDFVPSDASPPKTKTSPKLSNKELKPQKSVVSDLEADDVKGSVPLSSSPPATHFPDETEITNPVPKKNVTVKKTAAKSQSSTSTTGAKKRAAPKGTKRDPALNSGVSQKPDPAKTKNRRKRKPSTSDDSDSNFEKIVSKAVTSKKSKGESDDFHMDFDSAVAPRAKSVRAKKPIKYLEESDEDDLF

With `COc1ccc(NC(=O)c2ccccc2Nc2cccc(Cl)c2C)cc1`, the outcome in [1], in series [2], in [4] and in series [10] was Active. Further, the inhibition in vivo at 100 mg/kg in series [3] is 66.7%. The same compound gave an AUC(0-t) at 24 h in series [5] of 78400 ng·h/mL. The inhibition entry in series [6] and in series [11] was “Active” in each case. For the same compound, the inhibition result in series [7] was “Dose-Dependent Effect”. Besides, in series [8], the Survival is listed as above 80%. Further, in series [9], the IC50 stood at 4.77 µM. The figures for the Activity in series [12] and in [14] were 26.28% and “Toxic”, respectively. The inhibition result in [13] was “inactive”.
With `Cc1c(Cl)cccc1Nc1ccccc1C(=O)Nc1ccc2c(c1)OCO2`, the outcome in [1], in [2], in [4] and in [10] was Active. The inhibition in vivo at 100 mg/kg in series [3] was determined as 56.4%. The same compound displayed an AUC(0-t) at 24 h in series [5] of 46200 ng·h/mL. The inhibition result in series [6] and in series [11] was “Active” throughout. Further, the inhibition result in series [7] was “Dose-Dependent Effect”. In [8], the Survival was above 80%. Besides, in [9], the IC50 was 6.46 µM. Besides, the Activity in [12] is recorded as 25.36%; in [14] it was “Non-Toxic”. For the same compound, in series [13], the inhibition result was “inactive”.

For orientation: AUC(0-t) means exposure summed from dosing to a finite time, without extrapolation to infinity. The IC50 is the concentration at which inhibition is half-maximal.
